Experimental findings from ChEMBL document CHEMBL1159211, “Antifungal evaluation of pseudolaric acid B, a major constituent of Pseudolarix kaempferi” (J Nat Prod, 1995) are described below.

SMILES strings stand for the structures. The source made the active and inactive calls. Bounds are passed on as bounds.

Series [1] relates to Trichophyton mentagrophytes. Nature of the series: Antimicrobial activity against Trichophyton mentagrophytes at 1 mg/mL by agar-well diffusion assay. It is filed as functional.
Series [2] deals with Candida albicans. The series is described as follows: Antimicrobial activity against Candida albicans at 1 mg/mL by agar-well diffusion assay. The format is functional. The settings on record: for zone of inhibition at 1000 µg/mL: Candida albicans, read-out: IZ. Background: A growth-free zone around the sample is the usual read-out of agar diffusion tests.
The subject of another series is Nannizzia gypsea. Nature of the series: Antimicrobial activity against Microsporum gypseum at 1 mg/mL by agar-well diffusion assay. The format is functional.
A further series concerns Aspergillus fumigatus. The series is described as follows: Antimicrobial activity against Aspergillus fumigatus at 1 mg/mL by agar-well diffusion assay. The format is functional.
The test system of another series is Staphylococcus aureus. The series is described as follows: Antimicrobial activity against Staphylococcus aureus at 1 mg/mL by agar-well diffusion assay. It is filed as functional, organism-based.
In a further series the test system is Saccharomyces cerevisiae. Nature of the series: Antimicrobial activity against Saccharomyces cerevisiae at 1 mg/mL by agar-well diffusion assay. It is filed as functional, organism-based.
Another series has as its system Bacillus subtilis. The series is described as follows: Antimicrobial activity against Bacillus subtilis at 1 mg/mL by agar-well diffusion assay. The format is functional, organism-based.
In a further series the test system is Escherichia coli. The series is described as follows: Antimicrobial activity against Escherichia coli at 1 mg/mL by agar-well diffusion assay. It is filed as functional, organism-based.
A further series concerns Pseudomonas aeruginosa. Nature of the series: Antimicrobial activity against Pseudomonas aeruginosa at 1 mg/mL by agar-well diffusion assay. It is filed as functional, organism-based.
The next series has as its system Cryptococcus neoformans. Nature of the series: Antimicrobial activity against Cryptococcus neoformans at 1 mg/mL by agar-well diffusion assay. The format is functional.
The test system of another series is Aspergillus flavus. The series is described as follows: Antimicrobial activity against Aspergillus flavus at 1 mg/mL by agar-well diffusion assay. The format is functional.
The subject of series [3] is Mycobacterium intracellulare. The series is described as follows: Antimicrobial activity against Mycobacterium intracellular at 1 mg/mL by agar-well diffusion assay. The format is functional. The following applies: for zone of inhibition at 1000 µg/mL: read-out: IZ.
Series [4] has as its system Candida albicans. The series is described as follows: Antifungal activity against Candida albicans B311 infected in CD1 mouse assessed as prolongation of survival time at 10 mg/kg, iv administered 1, 3 and 5 days postinfection. The format is functional, organism-based. Further details: dose 10 mg/kg.
Series [5] relates to Candida albicans. The series is described as follows: Antifungal activity against Candida albicans B311 infected in CD1 mouse assessed as prolongation of survival time at 40 mg/kg, ip administered 7 hrs postinfection and continued for 7 or 14 consecutive days. It is filed as functional, organism-based. Further details: dose 40 mg/kg.
For series [6], the system named is Candida albicans. The series is described as follows: Antifungal activity against Candida albicans B311 assessed decrease in number of viable cells at 1 to 10 ug/ml after 24 hrs by time-to kill curve assay. The format is functional, organism-based.
The test system of another series is Starmerella magnoliae. Nature of the series: Antifungal activity against Candida magnoliae ATCC 12573 at 1 mg/mL by agar-well diffusion assay. It is filed as functional.
The test system of series [7] is Candida albicans. Nature of the series: Antifungal activity against Candida albicans ATCC 10231 at 1 mg/mL by agar-well diffusion assay. It is filed as functional.
Series [8] deals with Candida albicans. The series is described as follows: Antifungal activity against Candida stellatoidea SA-I at 1 mg/mL by agar-well diffusion assay. It is filed as functional.
Series [9] relates to Candida tropicalis. Nature of the series: Antifungal activity against Candida tropicalis ATCC 20326 at 1 mg/mL by agar-well diffusion assay. The format is functional.
Series [10] deals with Mus musculus. Nature of the series: Toxicity in CD1 mouse assessed as body weight at 40 mg/kg, ip administered for 14 consecutive days measured after day 21. The format is organism-based. Also noted: dose 40 mg/kg, route intraperitoneal. The following applies: in vivo.
In series [11] the test system is Mus musculus. Nature of the series: Toxicity in CD1 mouse assessed as body weight at 40 mg/kg, ip administered for 14 consecutive days measured after day 14. The format is organism-based. Also noted: dose 40 mg/kg, route intraperitoneal. The settings on record: in vivo.
Series [12] has as its system Candida tropicalis. Nature of the series: Antifungal activity against Candida tropicalis LM 64 by twofold serial broth dilution method. The format is functional. On the technique in general: In broth dilution the organism is exposed to a series of concentrations in liquid medium.
Series [13] has as its system Torula. The series is described as follows: Antifungal activity against Torula cremoris NRRL 7495 at 1 mg/mL by agar-well diffusion assay. The format is functional.
For series [14], the system named is Torula. Nature of the series: Antifungal activity against Torula cremoris NRRL 7495 by twofold serial broth dilution method. It is filed as functional.
Series [15] deals with Yarrowia deformans. Nature of the series: Antifungal activity against Torulopsis petrophilum ATCC 20225 by twofold serial broth dilution method. It is filed as functional.
For series [16], the system named is Candida tropicalis. The series is described as follows: Antifungal activity against Candida tropicalis ATCC 20021 at 1 mg/mL by agar-well diffusion assay. The format is functional.
Series [17] deals with Candida albicans. Nature of the series: Antifungal activity against Candida albicans B311 at 1 mg/mL by agar-well diffusion assay. It is filed as functional.
In series [18] the test system is Candida albicans. The series is described as follows: Antifungal activity against Candida stellatoidea SA-I by twofold serial broth dilution method. It is filed as functional.
The subject of series [19] is Mus musculus. Nature of the series: Toxicity in CD1 mouse assessed as body weight at 40 mg/kg, ip after day 1. The format is organism-based. Also noted: dose 40 mg/kg, route intraperitoneal. The following applies: in vivo.
In series [20] the test system is Candida albicans. The series is described as follows: Antifungal activity against Candida albicans B311 by twofold serial broth dilution method. The format is functional.
In series [21] the test system is Candida tropicalis. The series is described as follows: Antifungal activity against Candida tropicalis ATCC 20021 by twofold serial broth dilution method. It is filed as functional.
For series [22], the system named is Candida parapsilosis. Nature of the series: Antifungal activity against Candida parapsilosis ATCC 20224 at 1 mg/mL by agar-well diffusion assay. The format is functional.
For series [23], the system named is Candida albicans. The series is described as follows: Antifungal activity against Candida albicans ATCC 10231 by twofold serial broth dilution method. The format is functional.
Series [24] concerns Candida tropicalis. The series is described as follows: Antifungal activity against Candida tropicalis ATCC 20326 by twofold serial broth dilution method. It is filed as functional.
The test system of series [25] is Candida tropicalis. Nature of the series: Antifungal activity against Candida tropicalis LM 64 at 1 mg/mL by agar-well diffusion assay. The format is functional.
For series [26], the system named is Yarrowia deformans. The series is described as follows: Antifungal activity against Torulopsis petrophilum ATCC 20225 at 1 mg/mL by agar-well diffusion assay. The format is functional.
Series [27] concerns Candida parapsilosis. Nature of the series: Antifungal activity against Candida parapsilosis ATCC 20224 by twofold serial broth dilution method. It is filed as functional. The following applies: Lodderomyces parapsilosis.

Consider `COC(=O)C1=CC[C@@]23CC[C@@H]([C@@](C)(/C=C/C=C(\C)C(=O)[O-])OC2=O)[C@@]3(OC(C)=O)CC1.[Na+]` [SODIUM PSEUDOLARATE B], for which the “inhibition zone (IZ)” value in series [1] is 7 mm; in the series with Candida albicans [2], 7 mm; in the series on Nannizzia gypsea, 7 mm; in the series with Aspergillus fumigatus it was 3 mm.

As for `COC(=O)C1=CC[C@@]23CC[C@@H]([C@@](C)(/C=C/C=C(\C)C(=O)O)OC2=O)[C@@]3(O)CC1` [PSEUDOLARIC ACID C], the result (in [1]; with Staphylococcus aureus; in the series on Saccharomyces cerevisiae; in the series on Nannizzia gypsea; in the series with Bacillus subtilis; with Escherichia coli) was inactive. For the same compound, the outcome with Pseudomonas aeruginosa was inactive. Moreover, the zone of inhibition at 1000 µg/mL in the series with Candida albicans [2] came to 1 mm; with Cryptococcus neoformans (read-out: IZ), 1 mm; with Aspergillus flavus (read-out: IZ), 1 mm; with Aspergillus fumigatus (Aspergillus fumigatus, read-out: IZ) it was 1 mm; in [3], 1 mm.

`COC(=O)C1=CC[C@@]23CC[C@@H]([C@@](C)(/C=C/C=C(\C)C(=O)O)OC2=O)[C@@]3(OC(C)=O)CC1`: the result in the series on Staphylococcus aureus, with Saccharomyces cerevisiae, with Bacillus subtilis, in the series with Escherichia coli, with Pseudomonas aeruginosa and in the series with Cryptococcus neoformans was inactive. Further, the outcome (in the series with Aspergillus flavus; in the series with Candida albicans [5]; in series [3]) was inactive. Further, the outcome in the series on Candida albicans [4] and in the series on Candida albicans [6] was Active.

For the compound `C/C(=C\C=C\[C@@]1(C)OC(=O)[C@]23CC=C(C(=O)O)CC[C@]2(O)[C@H]1CC3)C(=O)O` [DEMETHOXYDEACETOXYPSEUDOLARIC ACID B], the zone of inhibition at 1000 µg/mL in [1] (Trichophyton mentagrophytes, read-out: IZ) was 3 mm; in the series on Candida albicans [2], < 1 mm; in series [3], 1 mm. Further, the result in the series on Staphylococcus aureus, in the series with Saccharomyces cerevisiae, with Nannizzia gypsea, in the series on Bacillus subtilis, in the series on Escherichia coli and in the series on Pseudomonas aeruginosa was inactive. The outcome with Cryptococcus neoformans, with Aspergillus flavus and in the series with Aspergillus fumigatus was inactive.

As usually defined, the MFC is the smallest concentration meeting the test's criterion for killing the fungus. The MIC is the lowest concentration found to suppress growth. `COC(=O)C1=CC[C@@]23CC[C@@H]([C@@](C)(/C=C/C=C(\C)C(=O)[O-])OC2=O)[C@@]3(OC(C)=O)CC1.[K+]` [POTASSIUM PSEUDOLARATE B]: the “inhibition zone (IZ)” value is listed as 7 mm in [1]; <1 mm with Starmerella magnoliae; 7 mm with Candida albicans [7]; 7 mm with Candida albicans [8]; 7 mm with Candida tropicalis [9]; 7 mm in the series with Candida albicans [2]. For the same compound, the “inhibition zone (IZ)” value was 7 mm in the series with Nannizzia gypsea; 3 mm with Torula [13]; 7 mm with Candida tropicalis [16]; 7 mm in the series on Candida albicans [17]; 7 mm with Candida parapsilosis [22]; 3 mm with Aspergillus fumigatus. For the same compound, the “inhibition zone (IZ)” value is >12 mm in the series with Candida tropicalis [25] and 7 mm with Yarrowia deformans [26]. Further, the Activity in the series with Mus musculus [10] is given as 25.6 g; with Mus musculus [11], 25.4 g; with Mus musculus [19] it was 24.2 g. Moreover, the MFC with Candida tropicalis [12] came to 6.25 µg/mL; in the series on Torula [14] it was 12.5 µg/mL; against Yarrowia deformans [15], 12.5 µg/mL; in the series on Candida albicans [18], 6.25 µg/mL; against Candida albicans [20] it was 6.25 µg/mL; with Candida tropicalis [21], 6.25 µg/mL. For the same compound, the MFC amounted to 6.25 µg/mL against Candida albicans [23], 6.25 µg/mL against Candida tropicalis [24] and 25 µg/mL in the series on Candida parapsilosis [27]. Also, the MIC against Candida tropicalis [12] is 0.78 µg/mL; in the series on Torula [14], 12.5 µg/mL; in the series on Yarrowia deformans [15] it was 0.78 µg/mL; in the series with Candida albicans [18] it was 3.12 µg/mL; in the series on Candida albicans [20] it was 3.12 µg/mL; in the series with Candida tropicalis [21], 3.12 µg/mL. Moreover, the figures for the MIC against Candida albicans [23], with Candida tropicalis [24] and with Candida parapsilosis [27] were 1.56 µg/mL, 1.56 µg/mL and 3.12 µg/mL, respectively.

As for `CC(=O)O[C@]12CCC(C(=O)O)=CC[C@]13CC[C@H]2[C@@](C)(/C=C/C=C(\C)C(=O)O)OC3=O` [PSEUDOLARIC ACID C2], the result (in [1]; in the series with Staphylococcus aureus; in the series on Saccharomyces cerevisiae; with Nannizzia gypsea; in the series on Bacillus subtilis; in the series with Escherichia coli) was inactive. The result (with Pseudomonas aeruginosa; in the series with Cryptococcus neoformans; in the series with Aspergillus flavus; in the series with Aspergillus fumigatus; in series [3]) was inactive. The zone of inhibition at 1000 µg/mL in the series with Candida albicans [2] is < 1 mm.

Turning to `COC(=O)C1=CC[C@@]23CC[C@@H]([C@@](C)(/C=C/C=C(\C)C(=O)OC)OC2=O)[C@@]3(OC(C)=O)CC1`, the outcome (in series [1]; with Staphylococcus aureus; in the series on Saccharomyces cerevisiae; in the series on Nannizzia gypsea; in the series with Bacillus subtilis; in the series with Escherichia coli) was inactive. The outcome in the series on Pseudomonas aeruginosa, with Cryptococcus neoformans, with Aspergillus flavus and with Aspergillus fumigatus was inactive. The zone of inhibition at 1000 µg/mL with Candida albicans [2] is < 1 mm; in [3] it was 1 mm.
